From patent publication US9278940B2, “Cyclic amines as bromodomain inhibitors” (Zenith Epigenetics Corp., priority 2012, dated 2016)

Columns and labels:
Brd4 bromodomain 1 = target: T1, Brd4 bromodomain 1 (Homo sapiens, UniProt O60885); experiment: Inhibition of tetra-acetylated histone H4 binding to BET bromodomain (TR-FRET); parameters: key: Active: Compounds with an IC50 value less than 30 μM were deemed to be active.; Not Active: Compounds with an IC50 value less than 30 μM were deemed to be active; conditions: Brd4 bromodomain 1, tetra-acetylated histone H4 peptide
T1 construct: made in house; host or cells: E. coli BL21(DE3)
Protocol: Proteins were cloned and overexpressed with a N-terminal 6×His tag, then purified by nickel affinity followed by size exclusion chromatography. Briefly, E. coli BL21(DE3) cells were transformed with a recombinant expression vector encoding N-terminally Nickel affinity tagged bromodomains from Brd2, Brd3, Brd4. Cell cultures were incubated at 37° C. with shaking to the appropriate density and induced overnight with IPTG. The supernatant of lysed cells was loaded onto Ni-IDA column for purification. Eluted protein is pooled, concentrated and further purified by size exclusion chromatography. Fractions representing monomeric protein were pooled, concentrated, aliquoted, and frozen at −80° C. for use in subsequent experiments.
Binding of tetra-acetylated histone H4 and BET bromodomains was confirmed by a Time Resolved Fluorescence Resonance Energy Transfer (TR-FRET) method. N-terminally His-tagged bromodomains (200 nM) and biotinylated tetra-acetylated histone H4 peptide (25-50 nM, Millipore) were incubated in the presence of Europium Cryptate-labeled streptavidin (Cisbio Cat. #610SAKLB) and XL665-labeled monoclonal anti-His antibody (Cisbio Cat. #61HISXLB) in a white 96 well microtiter plate (Greiner). For inhibition assays, serially diluted test compound was added to these reactions in a 0.2% final concentration of DMSO. Final buffer concentrations were 30 mM HEPES pH 7.4, 30 mM NaCl, 0.3 mM CHAPS, 20 mM phosphate pH 7.0, 320 mM KF, 0.08% BSA). After 2 hours incubation at room temperature, the fluorescence by FRET was measured at 665 and 620 nm by a SynergyH4 plate reader (Biotek). The binding inhibitory activity was shown by a decrease in 665 nm fluorescence relative to 620 nm. IC50 values were determined from a dose response curve.

c-myc = experiment: Inhibition of c-myc expression (mRNA, real-time PCR) in MV4-11 cells; format: cell-based; parameters: key: Active: Compounds with an IC50 value less than 30 μM were deemed to be active.; Not Active: Compounds with an IC50 value less than 30 μM were deemed to be active; conditions: Human AML MV4-11 cells, 3 hours
Protocol: MV4-11 cells (2.5×10^4 cells) were plated in 96 well U-bottom plates with test compound or DMSO (0.1%), and incubated for 3 hours at 37° C. Cells were then harvested by centrifugation, lysed, and mRNA was isolated using the mRNA catcher plus kit (Invitrogen). Reverse transcription of the mRNA and duplex amplification of the c-myc and cyclophilin cDNAs was performed using the RNA Ultrasense kit (Invitrogen) and a ViiA7 real-time PCR machine (Applied Biosystems). IC50 values were determined from a dose response curve.

Human AML MV-4-11 cells = experiment: Inhibition of cell proliferation in MV4-11 cells; format: cell-based; parameters: key: Active: Compounds with an IC50 value less than 30 μM are deemed to be active.; Not Active: Compounds with an IC50 value less than 30 μM are deemed to be active; conditions: 72 hours
Protocol: MV4-11 cells: 96-well plates were seeded with 5×10^4 cells per well of exponentially growing human AML MV-4-11 (CRL-9591) cells and immediately treated with two-fold dilutions of test compounds, ranging from 30 μM to 0.2 μM. Triplicate wells were used for each concentration, as well as a media only and three DMSO control wells. The cells and compounds were incubated at 37° C., 5% CO2 for 72 hours before adding 20 μL of the CellTiter Aqueous One Solution (Promega) to each well and incubating at 37° C., 5% CO2 for an additional 3-4 hours. The absorbance was taken at 490 nm in a spectrophotometer and the percentage of proliferation relative to DMSO-treated cells was calculated after correction from the blank well. IC50 were calculated using the GraphPad Prism software.

hIL-6 mRNA = experiment: Inhibition of hIL-6 mRNA transcription in LPS-stimulated U937 macrophages; format: cell-based, human; parameters: key: Active: Compounds with an IC50 value less than 30 μM are deemed to be active.; Not Active: Compounds with an IC50 value less than 30 μM are deemed to be active; conditions: U937 cells differentiated with PMA, 1 h pretreatment, LPS 3 h
Protocol: In this example, hIL-6 mRNA in tissue culture cells was quantitated to measure the transcriptional inhibition of hIL-6 when treated with a compound of the present disclosure.
A human leukemic monocyte lymphoma cell line (U937) was plated (3.2×10^4 cells per well) in a 96-well plate in […] RPMI-1640 containing 10% FBS and penicillin/streptomycin, and differentiated into macrophages for 3 days in 60 ng/mL PMA ([…]) at 37° C. in 5% CO2 prior to the addition of the compound of interest. The cells were pretreated for 1 h with the test compound prior to stimulation with 1 ug/mL lipopolysaccharide from Escherichia coli. The cells were incubated at 37-C for 3 h before the cells were harvested. At time of harvest, the spent media was removed from the cells and the cells were rinsed in 200 μL PBS. Cell lysis solution (70 μL) was added the cells in each well and incubated for 5-10 min at room temperature, to allow for complete cell lysis and detachment. mRNA was then prepared using the “mRNA Catcher PLUS plate” (Invitrogen), according to the protocol supplied. After the last wash, as much wash buffer as possible was aspirated without allowing the wells to dry. Elution buffer (E3, 70 μL) was then added to each well. mRNA was then eluted by incubating the mRNA Catcher PLUS plate with Elution Buffer for 5 min at 68° C. and then immediately placing the plate on ice.
The eluted mRNA isolated was then used in a one-step quantitative real-time PCR reaction, using components of the Ultra Sense Kit together with Applied Biosystems primer-probe mixes. Real-time PCR data was analyzed, normalizing the Ct values for hIL-6 to an internal control, prior to determining the fold induction of each unknown sample, relative to the control.

hApoA-1 mRNA = experiment: Up-regulation of hApoA-1 mRNA transcription in Huh7 cells; format: cell-based, human; parameters: key: Active: Compounds with an EC170 value less than 30 μM are deemed to be active.; Not Active: Compounds with an EC170 value less than 30 μM are deemed to be active; conditions: 48 hrs treatment, ApoA-I mRNA
Protocol: In this example, ApoA-I mRNA in tissue culture cells was quantitated to measure the transcriptional up-regulation of ApoA-I when treated with a compound of the present disclosure.
Huh7 cells ([…] per well) were plated in a 96-well plate using 100 μL DMEM per well, (Gibco DMEM supplemented with penicillin/streptomycin and 10% FBS), 24 h before the addition of the compound of interest. After 48 hrs treatment, the spent media was removed from the Huh-7 cells and placed on ice (for immediate use) or at −80° C. (for future use) with the “LDH cytotoxicity assay Kit II” from Abcam. The cells remaining in the plate were rinsed with 100 μL PBS.
Then 85 μL of cell lysis solution was added to each well and incubated for 5-10 minutes at room temperature, to allow for complete cell lysis and detachment. mRNA was then prepared using the “mRNA Catcher PLUS plate” from Life Technologies, according to the protocol supplied. After the last wash, as much wash buffer as possible was aspirated without allowing the wells to dry. Elution Buffer (E3, 80 μL) was then added to each well. mRNA was then eluted by incubating the mRNA Catcher PLUS plate with Elution Buffer for 5 minutes at 68° C., and then 1 minute at 4° C. Catcher plates with mRNA eluted were kept on ice for use or stored at −80° C.
The eluted mRNA isolated was then used in a one-step real-time PCR reaction, using components of the Ultra Sense Kit together with Life Technologies primer-probe mixes. Real-time PCR data was analyzed, using the Ct values, to determine the fold induction of each unknown sample, relative to the control (that is, relative to the control for each independent DMSO concentration).
Compounds with an EC170 value less than 30 μM are deemed to be active.

| Structure (SMILES) | FRET activity (IC50 < 30 μM) (Brd4 bromodomain 1) | c-myc activity (IC50 < 30 μM) (c-myc) | cell proliferation activity (IC50 < 30 μM) (Human AML MV-4-11 cells) | IL-6 activity (IC50 < 30 μM) (hIL-6 mRNA) | ApoA-1 activity (EC170 < 30 μM) (hApoA-1 mRNA) | melting point |
| --- | --- | --- | --- | --- | --- | --- |
| COc1cc(OC)c2c(=O)[nH]c(-c3cccc(N4CCN(C(C)C)CC4)c3)nc2c1 [Example 1, 2-(3-(4-Isopropylpiperazin-1-yl)phenyl)-5,7-dimethoxyquinazolin-4(3H)-one] | Active | Active | Not Active | Active | Active | 251 to 253 °C |
| COc1cc(-c2nc3cc(OC)cc(OC)c3c(=O)[nH]2)cc(N2CCN(C(C)C)CC2)c1 [Example 2, 2-(3-(4-Isopropylpiperazin-1-yl)-5-methoxyphenyl)-5,7-dimethoxyquinazolin-4(3H)-one] | Active | Active | Active | Active | Active | 212 to 213 °C |
| COCCN1CCN(c2cccc(-c3nc4cc(OC)cc(OC)c4c(=O)[nH]3)n2)CC1 [Example 3, 5,7-Dimethoxy-2-(6-(4-(2-methoxyethyl)piperazin-1yl)pyridin-2-yl)quinazolin-4(3H)-one] | Active | Active | Active | Active | Active | 99 to 101 °C |
| COc1cc(OC)c2c(=O)[nH]c(-c3cccc(N4CCN(CCO)CC4)n3)nc2c1 [Example 4, 2-(6-(4-(2-Hydroxyethyl)piperazin-1-yl)pyridin-2-yl)-5,7-dimethoxyquinazolin-4(3H)-one] | Active | Active | Active | Active | Active | 175 to 177 °C |
| COc1cc(OC)c2c(=O)[nH]c(-c3cccc(N4CCN(CC(C)C)CC4)n3)nc2c1 [Example 5, 2-(6-(4-Isobutylpiperazin-1-yl)pyridin-2-yl)-5,7-dimethoxyquinazolin-4(3H)-one] | Active | Active | Active | Active | Active | 188 to 189 °C |
| COc1cc(OC)c2c(=O)[nH]c(-c3cccc(N4CCN(C(C)CO)CC4)n3)nc2c1 (stereo not shown) [Example 8, 2-(6-(4-(1-Hydroxypropan-2-yl)piperazin-1-yl)pyridin-2-yl)-5,7-dimethoxyquinazolin-4(3H)-one] | Active | Active | Active | Active | Active | 202 to 204 °C |
| COc1cc(OC)c2c(=O)[nH]c(-c3cccc(N4CCN(C(C)C(N)=O)CC4)n3)nc2c1 (stereo not shown) [Example 9, 2-(4-(6-(5,7-Dimethoxy-4-oxo-3,4-dihydroquinazolin-2-yl)pyridin-2-yl)piperazin-1-yl)propanamide] | Active | Not Active | Active | Not Active | Active | 149 to 150 °C |
| COc1cc(OC)c2c(=O)[nH]c(-c3cccc(N4CCN(CCC(=O)O)CC4)n3)nc2c1 [Example 11, 3-(4-(6-(5,7-Dimethoxy-4-oxo-3,4-dihydroquinazolin-2-yl)pyridin-2-yl)piperazin-1-yl)propanoic acid] | Active | – | – | Not Active | Not Active | 241 °C (dec.) |
| COc1cc(OC)c2c(=O)[nH]c(-c3ccc(OC)c(N4CCN(C(C)C)CC4)n3)nc2c1 [Example 14, 2-(6-(4-Isopropylpiperazin-1-yl)-5-methoxypyridin-2-yl)-5,7-dimethoxyquinazolin-4(3H)-one] | Active | Active | Active | Not Active | Active | 208 to 210 °C |
